# pKi: −log10 of the molar value.
# Molecular target: HPK1 (Homo sapiens, UniProt Q92918)
# Experiment: HPK1 Kinase Binding Assay
# Details: active HPK1 (SignalChem M23-11G), tracer 222, LanthaScreen Eu-Anti GST antibody, one hour incubation at 25° C.
# Experimental: A stock solution of 1 mM test compound was prepared in DMSO. The compound plate was prepared by 3-fold and 11-point serial dilutions. 0.1 μL of the compound in DMSO was transferred from the compound plate to the white 384 well polystyrene plates. The assay buffer contained 50 mM HEPES, pH 7.5, 0.01% Tween-20, 5 mM MgCl2, 0.01% BSA, and 5 mM DTT. 5 μL of 4 nM active HPK1 (SignalChem M23-11G) prepared in the buffer was added to the plate. The enzyme concentration given was based on the given stock concentration reported by the vender. […] After one hour incubation at 25° C., the plates were read on a PHERAstar FS plate reader (BMG Labtech). Ki values were determined.
# Sequence of HPK1 (Q92918 whole entry, looked up): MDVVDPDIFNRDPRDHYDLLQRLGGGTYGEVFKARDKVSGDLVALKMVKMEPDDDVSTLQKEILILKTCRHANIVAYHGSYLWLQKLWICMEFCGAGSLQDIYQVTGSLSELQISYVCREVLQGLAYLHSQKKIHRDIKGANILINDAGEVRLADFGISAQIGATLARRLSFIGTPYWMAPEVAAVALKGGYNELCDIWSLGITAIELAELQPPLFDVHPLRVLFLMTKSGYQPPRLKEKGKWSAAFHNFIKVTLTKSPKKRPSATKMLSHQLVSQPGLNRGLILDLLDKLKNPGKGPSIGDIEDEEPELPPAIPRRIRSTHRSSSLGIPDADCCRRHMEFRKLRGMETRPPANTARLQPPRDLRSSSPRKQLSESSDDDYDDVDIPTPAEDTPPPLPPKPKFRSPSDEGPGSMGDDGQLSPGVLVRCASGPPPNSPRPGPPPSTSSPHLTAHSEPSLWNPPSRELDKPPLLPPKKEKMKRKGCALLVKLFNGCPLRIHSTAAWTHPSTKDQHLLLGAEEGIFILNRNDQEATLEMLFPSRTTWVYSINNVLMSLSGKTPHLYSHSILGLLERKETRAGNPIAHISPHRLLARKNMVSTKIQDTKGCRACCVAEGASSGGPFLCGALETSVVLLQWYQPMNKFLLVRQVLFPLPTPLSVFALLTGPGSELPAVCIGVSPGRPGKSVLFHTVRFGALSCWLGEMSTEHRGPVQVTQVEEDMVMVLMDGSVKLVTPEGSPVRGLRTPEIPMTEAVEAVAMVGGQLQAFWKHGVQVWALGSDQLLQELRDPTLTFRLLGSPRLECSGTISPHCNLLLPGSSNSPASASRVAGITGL
row,Compound,pKi
1,"Cc1nc2c(N3CC[C@@H](N)C3)c(NC(=O)c3ccnc(-c4c(F)cccc4F)n3)ccc2s1 [Example 1, (R)—N-(4-(3-Aminopyrrolidin-1-yl)-2-methylbenzo[d]thiazol-5-yl)-2-(2,6-difluorophenyl)pyrimidine-4-carboxamide]",> 7.00
2,"CNCc1cc(C)c(-c2nccc(C(=O)Nc3ccc4sc(C)nc4c3N3CC[C@@H](N)C3)n2)c(F)c1 [Example 4, (R)—N-(4-(3-Aminopyrrolidin-1-yl)-2-methylbenzo[d]thiazol-5-yl)-2-(2-fluoro-6-methyl-4-((methylamino)methyl)phenyl)pyrimidine-4-carboxamide]",> 7.00
3,"COc1cccc(F)c1-c1nccc(C(=O)Nc2cc(Br)c3sc(C)nc3c2N2CC[C@H](N)C2)n1 [Example 6, (S)—N-(4-(3-Aminopyrrolidin-1-yl)-7-bromo-2-methylbenzo[d]thiazol-5-yl)-2-(2-fluoro-6-methoxyphenyl)pyrimidine-4-carboxamide]",> 7.00
4,"COc1cccc(F)c1-c1nccc(C(=O)Nc2cc(C)c3sc(C)nc3c2N2CC[C@H](N)C2)n1 [Example 7, (S)—N-(4-(3-Aminopyrrolidin-1-yl)-2,7-dimethylbenzo[d]thiazol-5-yl)-2-(2-fluoro-6-methoxyphenyl)pyrimidine-4-carboxamide]",> 7.00
5,"COc1cccc(F)c1-c1nccc(C(=O)Nc2cc(C#N)c3sc(C)nc3c2N2CC[C@H](N)C2)n1 [Example 8, (S)—N-(4-(3-Aminopyrrolidin-1-yl)-7-cyano-2-methylbenzo[d]thiazol-5-yl)-2-(2-fluoro-6-methoxyphenyl)pyrimidine-4-carboxamide]",> 7.00
6,"COCc1nc2c(N3CCC[C@H]3CN)c(NC(=O)c3ccnc(-c4c(F)cccc4OC)n3)ccc2s1 [Example 9, (S)—N-(4-(2-(Aminomethyl)pyrrolidin-1-yl)-2-(methoxymethyl)benzo[d]thiazol-5-yl)-2-(2-fluoro-6-methoxyphenyl)pyrimidine-4-carboxamide]",> 7.00
7,"COCCc1nc2c(N3CCC[C@H]3CN)c(NC(=O)c3ccnc(-c4c(F)cccc4OC)n3)ccc2s1 [Example 10, (S)—N-(4-(2-(Aminomethyl)pyrrolidin-1-yl)-2-(2-methoxyethyl)benzo[d]thiazol-5-yl)-2-(2-fluoro-6-methoxyphenyl)pyrimidine-4-carboxamide]",> 7.00
8,"COc1cccc(C(N)=O)c1-c1nccc(C(=O)Nc2ccc3sc(C)nc3c2N2C[C@H](N)C[C@H]2CO)n1 [Example 14, N-(4-((2S,4R)-4-Amino-2-(hydroxymethyl)pyrrolidin-1-yl)-2-methylbenzo[d]thiazol-5-yl)-2-(2-carbamoyl-6-methoxyphenyl)pyrimidine-4-carboxamide]",6.30 to 7.00
9,"COc1ccc(-c2cnn(C)c2)c(F)c1-c1nccc(C(=O)Nc2ccc3sc(C)nc3c2N2C[C@H](N)C[C@H]2CO)n1 [Example 15, N-(4-((2S,4R)-4-Amino-2-(hydroxymethyl)pyrrolidin-1-yl)-2-methylbenzo[d]thiazol-5-yl)-2-(2-fluoro-6-methoxy-3-(1-methyl-1H-pyrazol-4-yl)phenyl)pyrimidine-4-carboxamide]",> 7.00
10,"COc1ccc(F)c(F)c1-c1nccc(C(=O)Nc2ccc3sc(C)nc3c2N2C[C@H](N)C[C@H]2CO)n1 [Example 16, N-(4-((2S,4R)-4-Amino-2-(hydroxymethyl)pyrrolidin-1-yl)-2-methylbenzo[d]thiazol-5-yl)-2-(2,3-difluoro-6-methoxyphenyl)pyrimidine-4-carboxamide]",> 7.00
11,"COc1cccc(F)c1-c1nccc(C(=O)Nc2ccc3sc(C)nc3c2N2C[C@H](NC(C)C)C[C@H]2CO)n1 [Example 18, 2-(2-Fluoro-6-methoxyphenyl)-N-(4((2S,4R)-2-(hydroxymethyl)-4-(isopropylamino)pyrrolidin-1-yl)-2-methylbenzo[d]thiazol-5-yl)pyrimidine-4-carboxamide]",> 7.00
12,"COc1cccc(F)c1-c1nccc(C(=O)Nc2ccc3sc(C)nc3c2N2C[C@H](NC3CCOCC3)C[C@H]2CO)n1 [Example 19, 2-(2-Fluoro-6-methoxyphenyl)-N-(4((2S,4R)-2-(hydroxymethyl)-4-(tetrahydro-2H-pyran-4-ylamino)pyrrolidin-1-yl)-2-methylbenzo[d]thiazol-5-yl)pyrimidine-4-carboxamide]",> 7.00
13,"COc1cccc(F)c1-c1nccc(C(=O)Nc2ccc3sc(C)nc3c2N2C[C@H]3C[C@@H]2CO3)n1 [Example 22, N-(4-((1R,4R)-2-Oxa-5-azabicyclo[2.2.1]heptan-5-yl)-2-methylbenzo[d]thiazol-5-yl)-2-(2-fluoro-6-methoxyphenyl)pyrimidine-4-carboxamide]",> 7.00
14,"COc1cccc(F)c1-c1nccc(C(=O)Nc2ccc3sc(C)nc3c2N2C[C@@H](N)C[C@H]2CO)n1 [Example 23, N-(4-((2S,4S)-4-amino-2-(hydroxymethyl)pyrrolidin-1-yl)-2-methylbenzo[d]thiazol-5-yl)-2-(2-fluoro-6-methoxyphenyl)pyrimidine-4-carboxamide]",> 7.00
15,"COc1cccc(F)c1-c1nccc(C(=O)Nc2ccc3sc(C)nc3c2N2C[C@H]3C[C@@H]2CN3C(=O)N2CCOCC2)n1 [Example 25, 2-(2-Fluoro-6-methoxyphenyl)-N-(2-methyl-4((1R,4R)-5-(morpholine-4-carbonyl)-2,5-diazabicyclo[2.2.1]heptan-2-yl)benzo[d]thiazol-5-yl)pyrimidine-4-carboxamide]",> 7.00
16,"COc1cccc(F)c1-c1nccc(C(=O)Nc2ccc3sc(C)nc3c2N2CCOC[C@@H]2CN)n1 [Example 26, (S)—N-(4-(3-(aminomethyl)morpholino)-2-methylbenzo[d]thiazol-5-yl)-2-(2-fluoro-6-methoxyphenyl)pyrimidine-4-carboxamide]",> 7.00
17,COc1cccc(F)c1-c1nccc(C(=O)Nc2ccc3sc(C)nc3c2N(C)[C@@H]2CCCNC2)n1 [Example 27],> 7.00
18,"COc1cccc(F)c1-c1nccc(C(=O)Nc2ccc3sc(C)nc3c2N2CCC3CCNCC32)n1 (centres unmarked) [Example 28, 2-(2-Fluoro-6-methoxyphenyl)-N-(2-methyl-4-(octahydro-1H-pyrrolo[2,3-c]pyridin-1-yl)benzo[d]thiazol-5-yl)pyrimidine-4-carboxamide]",> 7.00
19,"COc1cccc(F)c1-c1nccc(C(=O)Nc2ccc3sc(C)nc3c2N2CCC(c3ccccn3)C2)n1 (centres unmarked) [Example 29, 2-(2-Fluoro-6-methoxyphenyl)-N-(2-methyl-4-(3-(pyridin-2-yl)pyrrolidin-1-yl)benzo[d]thiazol-5-yl)pyrimidine-4-carboxamide]",> 7.00
20,"COc1cccc(F)c1-c1nccc(C(=O)Nc2ccc3sc(C)nc3c2N2CC(F)(F)C[C@H]2CO)n1 [Example 30, (S)—N-(4-(4,4-Difluoro-2-(hydroxymethyl)pyrrolidin-1-yl)-2-methylbenzo[d]thiazol-5-yl)-2-(2-fluoro-6-methoxyphenyl)pyrimidine-4-carboxamide]",> 7.00

# Second part, the molecule after the results:
row,pKi,Compound
1,> 7.00,"Cc1nc2c(N3CC[C@@H](N)C3)c(NC(=O)c3ccnc(-c4c(C)cccc4F)n3)ccc2s1 [Example 2, (R)—N-(4-(3-Aminopyrrolidin-1-yl)-2-methylbenzo[d]thiazol-5-yl)-2-(2-fluoro-6-methylphenyl)pyrimidine-4-carboxamide]"
2,> 7.00,"COc1cccc(F)c1-c1nccc(C(=O)Nc2cc(Cl)c3sc(C)nc3c2N2CC[C@H](N)C2)n1 [Example 5, (S)—N-(4-(3-Aminopyrrolidin-1-yl)-7-chloro-2-methylbenzo[d]thiazol-5-yl)-2-(2-fluoro-6-methoxyphenyl)pyrimidine-4-carboxamide]"
3,> 7.00,"COc1cccc(F)c1-c1nccc(C(=O)Nc2ccc3sc(C)nc3c2N2C[C@H](N)C[C@H]2CO)n1 [Example 11, N-(4-((2S,4R)-4-Amino-2-(hydroxymethyl)pyrrolidin-1-yl)-2-methylbenzo[d]thiazol-5-yl)-2-(2-fluoro-6-methoxyphenyl)pyrimidine-4-carboxamide]"
4,> 7.00,"CCc1nc2c(N3C[C@@H](N)C[C@H]3CO)c(NC(=O)c3ccnc(-c4c(F)cccc4OC)n3)ccc2s1 [Example 12, N-(4-((2S,4S)-4-Amino-2-(hydroxymethyl)pyrrolidin-1-yl)-2-ethylbenzo[d]thiazol-5-yl)-2-(2-fluoro-6-methoxyphenyl)pyrimidine-4-carboxamide]"
5,> 7.00,"COc1cccc(F)c1-c1nccc(C(=O)Nc2ccc3sc(C(C)C)nc3c2N2C[C@@H](N)C[C@H]2CO)n1 [Example 13, N-(4-((2S,4S)-4-Amino-2-(hydroxymethyl)pyrrolidin-1-yl)-2-isopropylbenzo[d]thiazol-5-yl)-2-(2-fluoro-6-methoxyphenyl)pyrimidine-4-carboxamide]"
6,> 7.00,"[2H]C([2H])([2H])Oc1ccc(C#N)c(F)c1-c1nccc(C(=O)Nc2ccc3sc(C)nc3c2N2C[C@H](N)C[C@H]2CO)n1 [Example 17, N-(4-((2S,4R)-4-Amino-2-(hydroxymethyl)pyrrolidin-1-yl)-2-methylbenzo[d]thiazol-5-yl)-2-(3-cyano-2-fluoro-6-(methoxy-d3)phenyl)pyrimidine-4-carboxamide]"
7,> 7.00,"COc1cccc(F)c1-c1nccc(C(=O)Nc2ccc3sc(C)nc3c2N2C[C@H](NC(C)=O)C[C@H]2CO)n1 [Example 20, N-(4-((2S,4R)-4-Acetamido-2-(hydroxymethyl)pyrrolidin-1-yl)-2-methylbenzo[d]thiazol-5-yl)-2-(2-fluoro-6-methoxyphenyl)pyrimidine-4-carboxamide]"
8,> 7.00,"COc1cccc(F)c1-c1nccc(C(=O)Nc2ccc3sc(C)nc3c2N2C[C@H](NS(C)(=O)=O)C[C@H]2CO)n1 [Example 21, 2-(2-Fluoro-6-methoxyphenyl)-N-(4((2S,4R)-2-(hydroxymethyl)-4-(methylsulfonamido)pyrrolidin-1-yl)-2-methylbenzo[d]thiazol-5-yl)pyrimidine-4-carboxamide]"
9,> 7.00,"COc1cccc(F)c1-c1nccc(C(=O)Nc2ccc3sc(C)nc3c2N(C)CC2CCN(C)C2)n1 (centres unmarked) [Example 24, 2-(2-Fluoro-6-methoxyphenyl)-N-(2-methyl-4-(methyl((1-methylpyrrolidin-3-yl)methyl)amino)benzo[d]thiazol-5-yl)pyrimidine-4-carboxamide]"
